Results published in the supplement of paper PMC10307832.

Experiments:
Assay in all cases: relative viability (nuclei count vs DMSO), 5 days (fraction); higher = more cells survive
[1] = compound: CC[C@@H](C)CNCC(=O)N1CCC2=C([C@@H]1COC3=CC=CC(=C3)C)C=CS2 [RU-SKI 43] + Cc1nc(NC(=O)N2CCC[C@H]2C(N)=O)sc1-c1ccnc(C(C)(C)C(F)(F)F)c1 [Alpelisib] (partner 2 µM)
Outline: (§1)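 Relative viability was taken as the ratio of nuclei in treated wells to nuclei in vehicle wells. Lung cancer cell lines in 1536-well plates received compounds by pin tool one day after seeding, either one drug alone or a fixed anchor-drug dose plus five library-drug doses (not always all listed) in √10 steps. Nuclei were counted on 4× images after 5 days of treatment, and values are medians of duplicate plates.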

[2] = compound: CCc1c2c(nc3ccc(OC(=O)N4CCC(N5CCCCC5)CC4)cc13)-c1cc3c(c(=O)n1C2)COC(=O)[C@]3(O)CC [Irinotecan] + CC(=O)Nc1cccc(-n2c(=O)n(C3CC3)c(=O)c3c(Nc4ccc(I)cc4F)n(C)c(=O)c(C)c32)c1 [Trametinib] (partner 0.02 µM)
Outline: as §1

[3] = compound: CCc1c2c(nc3ccc(OC(=O)N4CCC(N5CCCCC5)CC4)cc13)-c1cc3c(c(=O)n1C2)COC(=O)[C@]3(O)CC [Irinotecan] + O=C(c1cc(Cc2n[nH]c(=O)c3ccccc23)ccc1F)N1CCN(C(=O)C2CC2)CC1 [Olaparib] (partner 8 µM)
Outline: as §1

[4] = compound: Cn1cc(-c2cnc3ccc4ccc(CS(=O)(=O)NCc5ccccn5)cc4c(=O)c3c2)cn1 [MK-8033] + CS(=O)(=O)CCNCc1ccc(-c2ccc3ncnc(Nc4ccc(OCc5cccc(F)c5)c(Cl)c4)c3c2)o1 [Lapatinib] (partner 2 µM)
Outline: as §1

Cell Line	relative viability ([1]; first compound 0.1 µM)	relative viability ([1]; first compound 0.3162 µM)	relative viability ([1]; first compound 1 µM)	relative viability ([1]; first compound 3.162 µM)	relative viability ([1]; first compound 10 µM)	relative viability ([2]; first compound 0.6325 µM)	relative viability ([2]; first compound 2 µM)	relative viability ([2]; first compound 6.325 µM)	relative viability ([2]; first compound 20 µM)	relative viability ([3]; first compound 0.6325 µM)	relative viability ([3]; first compound 2 µM)	relative viability ([3]; first compound 6.325 µM)	relative viability ([3]; first compound 20 µM)	relative viability ([4]; first compound 0.02 µM)	relative viability ([4]; first compound 0.06325 µM)	relative viability ([4]; first compound 0.2 µM)	relative viability ([4]; first compound 0.6325 µM)	relative viability ([4]; first compound 2 µM)
201T	1.08	1.01	0.984	1.03	1.01	0.771	0.347	0.255	0.27	0.53	0.312	0.231	0.264	1.03	0.906	0.995	1.07	1.07
A549	0.991	0.957	0.738	0.772	0.621	–	–	–	–	0.073	0.186	0.0779	0.0719	0.911	0.954	0.967	0.946	1.02
A-427	1.13	1.16	1.18	–	1.02	0.719	0.657	0.365	0.175	0.718	0.551	0.271	0.104	1.05	1.1	0.947	1.1	1.08
ABC-1	1.02	1.13	0.895	0.986	1.06	–	–	–	–	–	0.68	0.421	0.375	1.19	1.35	0.955	1.1	1.43
BEN	1.04	1.13	1.07	1.06	1	1.2	0.769	0.503	0.556	0.681	0.53	0.425	0.528	0.695	0.679	0.649	0.738	0.75
CAL-12T	1.06	1.53	1.44	1.39	1.25	0.309	0.292	0.299	0.274	0.494	0.44	0.288	0.297	0.604	0.566	0.601	0.868	0.591
COR-L23	0.87	0.657	0.725	0.757	0.815	0.307	0.41	0.23	0.0821	0.162	0.215	0.191	0.0964	1.17	0.997	0.7	0.941	0.901
COR-L 105	0.935	0.818	0.931	0.916	0.921	0.432	0.425	0.474	0.401	0.644	0.513	0.552	0.425	0.286	0.354	0.32	0.361	0.346
Calu-6	0.994	1.14	0.994	1.03	0.989	–	–	–	–	0.258	0.326	0.225	0.128	1.06	1.03	0.971	1.15	1.19
ChaGo-K-1	–	–	–	–	–	0.296	0.24	0.21	0.221	0.223	0.267	0.245	0.221	–	–	–	–	–
EBC-1	0.784	0.92	0.925	0.799	0.68	–	–	–	–	0.228	0.224	0.257	0.188	0.182	0.218	0.217	0.21	0.203
EKVX	0.79	0.949	0.828	0.946	0.839	–	0.35	0.279	0.15	–	0.539	0.275	0.224	0.193	0.195	0.216	0.207	0.255
EMC-BAC-2	0.769	0.752	0.762	0.733	0.893	0.867	0.766	0.474	0.201	0.276	0.292	0.274	0.158	0.954	0.792	0.859	0.959	0.876
EPLC-272H	1.12	0.968	0.987	–	0.948	–	0.323	0.224	0.203	0.508	0.547	0.307	0.218	0.905	–	0.914	1.05	0.903
H3255	0.719	0.834	0.773	0.725	0.686	–	0.506	0.346	0.37	0.464	0.446	0.343	0.362	0.24	0.233	0.232	0.261	0.226
HARA	0.762	0.729	0.843	0.69	0.733	0.643	0.373	0.245	0.145	0.466	0.405	0.2	0.262	0.594	0.632	0.763	0.69	0.828
HCC-15	0.96	1.02	0.963	0.931	0.844	0.325	0.233	0.179	0.174	0.213	0.279	0.202	0.146	0.849	0.801	0.785	0.805	0.856
HCC-44	0.73	0.72	0.901	0.875	0.802	1.01	0.868	0.561	0.421	0.754	0.423	0.378	0.425	1.02	1.02	0.943	0.999	1
HCC-78	0.349	0.325	0.378	0.436	0.29	0.882	0.716	0.31	0.262	0.492	0.332	0.233	0.343	0.765	0.811	0.65	–	0.94
